Results from patent US8785459B2, “Quinazoline compounds as kinase inhibitors” (Development Center for Biotechnology, priority 2011, dated 2014).
Where two headings read alike, the source gives them in different places.

Columns and labels:
Format in all cases: biochemical
B-Raf = B-Raf (Homo sapiens (Human), UniProt P15056); assay: Raf kinase assay (B-Raf), [33P] incorporation into MEK1(K97R); settings: for inhibition at 1 µM: read-out: B-Raf inhibition at 1.0 μM
Method: (§1) A. Raf Kinase Assays (B-Raf, B-raf (V600E), and C-Raf)
(§2) Inhibition of kinase activity by test compound disclosed herein was estimated by quantifying the amount of [^33P] incorporation of substrate in the presence of test compound. Standard assay conditions were 2 ng of recombinant C-Raf or 5 ng of recombinant B-Raf or 5 ng of recombinant B-Raf (V600E) kinase (Upstate Biotechnology) with 500 ng MEK1(K97R) in assay buffer {8 μM ATP, 0.5 μCi [^33P]ATP (specific activity 3000 Ci/mmol, PerkinElmer), 50 mM Tris/HCl (pH7.5), and 1 mM EGTA, 1 mM Na3VO4, 1% 2-mercaptoethanol, 0.1% Brij 35, and 0.2 mg/ml BSA} at a final volume of 25 μL. Reactions were incubated at 30° C. for 30 min and stopped by adding 3% phosphoric acid, harvested onto a 96-well GF/B UniFilter (PerkinElmer) using a unifilter harvester (PerkinElmer), and counted with a TopCount microplate scintillation counter (PerkinElmer). The IC50 values of inhibitors were determined after carrying out assays at 3-fold serially diluted concentrations of each compound in duplication. The results were analyzed using linear regression software (GraphPad Prism 4; GraphPad Software Inc.). Inhibition of B-Raf, B-raf (V600E), and C-Raf kinases by various compounds listed in Table 1 are summarized and shown in Table 3 below. IC50 value is defined as the concentration of the test compound which achieves a half-maximal inhibition of the kinase activity.

B-Raf (V600E) = B-Raf (V600E) (Homo sapiens (Human), UniProt P15056, V600E); assay: Raf kinase assay (B-Raf (V600E)), [33P] incorporation into MEK1(K97R)
B-Raf (V600E), sequence (P15056 whole entry V600E): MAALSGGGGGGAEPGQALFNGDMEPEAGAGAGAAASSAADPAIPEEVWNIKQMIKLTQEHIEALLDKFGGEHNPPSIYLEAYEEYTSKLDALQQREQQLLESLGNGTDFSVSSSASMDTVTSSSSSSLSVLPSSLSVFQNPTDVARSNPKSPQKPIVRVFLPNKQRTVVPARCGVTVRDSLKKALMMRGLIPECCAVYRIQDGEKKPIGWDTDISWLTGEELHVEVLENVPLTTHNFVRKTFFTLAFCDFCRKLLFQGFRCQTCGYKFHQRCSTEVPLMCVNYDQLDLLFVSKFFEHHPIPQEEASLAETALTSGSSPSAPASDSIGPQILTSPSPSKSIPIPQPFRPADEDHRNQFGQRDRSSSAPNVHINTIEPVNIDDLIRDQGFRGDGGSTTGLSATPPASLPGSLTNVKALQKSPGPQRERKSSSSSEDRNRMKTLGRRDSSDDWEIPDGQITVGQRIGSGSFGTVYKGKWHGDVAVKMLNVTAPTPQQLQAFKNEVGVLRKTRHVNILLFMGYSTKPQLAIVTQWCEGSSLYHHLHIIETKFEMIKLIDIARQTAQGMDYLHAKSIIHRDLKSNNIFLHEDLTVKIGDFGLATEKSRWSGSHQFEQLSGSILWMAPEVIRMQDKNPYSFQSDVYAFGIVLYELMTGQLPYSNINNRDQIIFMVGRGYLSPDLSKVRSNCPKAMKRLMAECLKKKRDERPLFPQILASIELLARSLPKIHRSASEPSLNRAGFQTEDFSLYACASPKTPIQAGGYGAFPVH
Method: as §1, §2

C-Raf = C-Raf (Homo sapiens (Human), UniProt P04049); assay: Raf kinase assay (C-Raf), [33P] incorporation into MEK1(K97R)
C-Raf, sequence (P04049 whole entry): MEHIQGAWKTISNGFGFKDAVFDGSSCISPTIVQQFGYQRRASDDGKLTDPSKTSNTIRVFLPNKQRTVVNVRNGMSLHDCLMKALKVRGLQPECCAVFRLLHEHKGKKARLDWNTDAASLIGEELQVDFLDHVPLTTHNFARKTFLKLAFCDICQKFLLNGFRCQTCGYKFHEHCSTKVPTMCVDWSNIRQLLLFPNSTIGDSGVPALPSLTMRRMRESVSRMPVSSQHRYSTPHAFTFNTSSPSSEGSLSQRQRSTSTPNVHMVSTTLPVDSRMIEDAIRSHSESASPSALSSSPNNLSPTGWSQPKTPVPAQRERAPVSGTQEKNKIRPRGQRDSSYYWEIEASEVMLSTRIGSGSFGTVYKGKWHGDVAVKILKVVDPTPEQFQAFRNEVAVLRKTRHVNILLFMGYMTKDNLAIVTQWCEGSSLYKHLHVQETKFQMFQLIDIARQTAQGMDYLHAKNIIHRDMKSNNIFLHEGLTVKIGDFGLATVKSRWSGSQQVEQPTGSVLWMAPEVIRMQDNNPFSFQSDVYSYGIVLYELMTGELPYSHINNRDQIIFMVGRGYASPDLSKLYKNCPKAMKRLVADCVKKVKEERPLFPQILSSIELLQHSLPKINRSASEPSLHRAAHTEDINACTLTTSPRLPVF
Method: as §1, §2

B-Raf, sequence (P15056 whole entry): as the sequence (P15056 whole entry V600E) above, with E600V counted along it

| Compound | inhibition at 1 µM (B-Raf; 1.0 μM compound) [%] | also measured |
| --- | --- | --- |
| COc1cccc(-c2ccc3ncnc(Nc4ccccc4)c3c2)c1 [Compound 3, 6-(3-methoxyphenyl)-N-phenylquinazolin-4-amine] | – | IC50 (B-Raf): 3290 nM; IC50 (B-Raf (V600E)): 3390 nM; IC50 (C-Raf): > 10000 nM |
| Oc1ccc(-c2ccc3ncnc(Nc4ccccc4)c3c2)cc1 [Compound 4, 4-(4-(phenylamino)quinazolin-6-yl)phenol] | – | IC50 (B-Raf): 3990 nM; IC50 (B-Raf (V600E)): 4870 nM; IC50 (C-Raf): 9460 nM |
| COc1cc(-c2ccc3ncnc(Nc4ccccc4)c3c2)ccc1OC(=O)Nc1ccccc1 [Compound 7, 2-methoxy-4-(4-(phenylamino)quinazolin-6-yl)phenyl phenylcarbamate] | – | inhibition at 1 µM (B-Raf): 23.5% |
| CCNC(=O)Oc1ccc(-c2ccc3ncnc(Nc4ccccc4)c3c2)cc1OC [Compound 9, 2-methoxy-4-(4-(phenylamino)quinazolin-6-yl)phenyl ethylcarbamate] | – | inhibition at 1 µM (B-Raf): 13.8% |
| COc1ccc(-c2ccc3ncnc(Nc4ccccc4)c3c2)cc1 [Compound 10, 6-(4-methoxyphenyl)-N-phenylquinazolin-4-amine] | 15.8 | – |
| NC(=O)Nc1ccc(-c2ccc3ncnc(Nc4ccccc4)c3c2)cc1 [Compound 11, 1-(4-(4-(phenylamino)quinazolin-6-yl)phenyl)urea] | 19.9 | – |
| CCNC(=O)Nc1ccc(-c2ccc3ncnc(Nc4ccccc4)c3c2)cc1 [Compound 12, 1-ethyl-3-(4-(4-(phenylamino)quinazolin-6-yl)phenyl)urea] | 18.2 | – |
| COc1cc(-c2ccc3ncnc(Nc4ccc(OC)c(OC)c4)c3c2)ccc1O [Compound 13, 4-(4-(3,4-dimethoxyphenylamino)quinazolin-6-yl)-2-methoxyphenol] | 7.7 | – |
| COc1cc(-c2ccc3ncnc(Nc4ccc(Cl)cc4F)c3c2)ccc1O [Compound 16, 4-(4-(4-chloro-2-fluorophenylamino)quinazolin-6-yl)-2-methoxyphenol] | 51.5 | IC50 (B-Raf): 817 nM; IC50 (B-Raf (V600E)): 810 nM; IC50 (C-Raf): 1250 nM |
| COc1cc(-c2ccc3ncnc(Nc4ccc(C)cc4F)c3c2)ccc1O [Compound 17, 4-(4-(2-fluoro-4-methylphenylamino)quinazolin-6-yl)-2-methoxyphenol] | 59.4 | IC50 (B-Raf): 647 nM; IC50 (B-Raf (V600E)): 619 nM; IC50 (C-Raf): 1910 nM |
| CCS(=O)(=O)Nc1ccc(-c2ccc3ncnc(Nc4ccccc4)c3c2)cc1 [Compound 24, N-(4-(4-(phenylamino)quinazolin-6-yl)phenyl)ethanesulfonamide] | 48.6 | IC50 (B-Raf): 1700 nM; IC50 (B-Raf (V600E)): 1810 nM |
| CCS(=O)(=O)Nc1ccc(-c2ccc3ncnc(Nc4cccc(NS(=O)(=O)CC)c4)c3c2)cc1 [Compound 26, N-(3-(6-(4-(ethylsulfonamido)phenyl)quinazolin-4-ylamino)phenyl)ethanesulfonamide] | 45.7 | – |
| O=S(=O)(Nc1ccc(-c2ccc3ncnc(Nc4ccccc4)c3c2)cc1)c1ccccc1 [Compound 28, N-(4-(4-(phenylamino)quinazolin-6-yl)phenyl)benzenesulfonamide] | 30.5 | – |
| COc1cc(-c2cc3c(Nc4ccccc4)ncnc3cc2OC)ccc1O [Compound 30, 2-methoxy-4-(7-methoxy-4-(phenylamino)quinazolin-6-yl)phenol] | 10 | – |
| COc1cc(-c2ccc3ncnc(Nc4cccc(C(=O)O)c4)c3c2)ccc1O [Compound 32, 3-(6-(4-hydroxy-3-methoxyphenyl)quinazolin-4-ylamino)benzoic acid] | 34.7 | – |
| COc1cc(-c2ccc3ncnc(Nc4ccc5cc[nH]c5c4)c3c2)ccc1O [Compound 40, 4-(4-(1H-indol-6-ylamino)quinazolin-6-yl)-2-methoxyphenol] | 32.2 | – |
| COc1ccc(Nc2ncnc3cc(OC)c(-c4ccc(O)c(OC)c4)cc23)cc1O [Compound 42, 4-(4-(3-hydroxy-4-methoxyphenylamino)-7-methoxyquinazolin-6-yl)-2-methoxyphenol] | 20.4 | – |
| COc1cc(-c2ccc3ncnc(Nc4ccc(C(N)=O)cc4)c3c2)ccc1O [Compound 47, 4-(6-(4-hydroxy-3-methoxyphenyl)quinazolin-4-ylamino)benzamide] | 37.8 | – |
| COc1ccc(C(=O)O)c(Nc2ncnc3ccc(-c4ccc(O)c(OC)c4)cc23)c1 [Compound 48, 2-(6-(4-hydroxy-3-methoxyphenyl)quinazolin-4-ylamino)-4-methoxybenzoic acid] | 30.6 | – |
| COc1cc(-c2ccc3ncnc(Nc4ccccc4C(=O)O)c3c2)ccc1O [Compound 50, 2-(6-(4-hydroxy-3-methoxyphenyl)quinazolin-4-ylamino)benzoic acid] | 15.6 | – |
| COc1cc(-c2ccc3ncnc(Nc4cc(O)ccc4OC)c3c2)ccc1O [Compound 55, 4-(4-(5-hydroxy-2-methoxyphenylamino)quinazolin-6-yl)-2-methoxyphenol] | 38.1 | – |
| COc1cc(-c2ccc3ncnc(Nc4ccc(C(=O)O)cc4)c3c2)ccc1O [Compound 57, 4-(6-(4-hydroxy-3-methoxyphenyl)quinazolin-4-ylamino)benzoic acid] | 4.8 | – |
| COc1cc(-c2ccc3ncnc(Nc4cccc(NS(=O)(=O)C(F)(F)F)c4)c3c2)ccc1O [Compound 65, 1,1,1-trifluoro-N-(3-(6-(4-hydroxy-3-methoxyphenyl)quinazolin-4-ylamino)phenyl)methanesulfonamide] | 40.4 | – |
| COc1cc(-c2ccc3ncnc(Nc4c(F)ccc5[nH]ncc45)c3c2)ccc1O [Compound 149, 4-(4-(5-fluoro-1H-indazol-4-ylamino)quinazolin-6-yl)-2-methoxyphenol] | – | B-Raf inhibition at 1.0 μM (B-Raf; 1.0 μM compound): 15.2% |

Continued, in another order:

| inhibition at 1 µM (B-Raf; 1.0 μM compound) [%] | Compound | also measured |
| --- | --- | --- |
| -6.5 | O=S(=O)(Nc1ccc(-c2ccc3ncnc(Nc4ccccc4)c3c2)cc1)c1ccc(F)cc1 [Compound 70, 4-fluoro-N-(4-(4-(phenylamino)quinazolin-6-yl)phenyl)benzenesulfonamide] | – |
| 36.3 | COc1cc(-c2ccc3ncnc(Nc4cccc5[nH]ccc45)c3c2)ccc1O [Compound 83, 4-(4-(1H-indol-4-ylamino)quinazolin-6-yl)-2-methoxyphenol] | – |
| 44.1 | COc1cc(-c2ccc3ncnc(Nc4ccc(F)c(NS(C)(=O)=O)c4)c3c2)ccc1O [Compound 130, N-(2-fluoro-5-(6-(4-hydroxy-3-methoxyphenyl)quinazolin-4-ylamino)phenyl)methanesulfonamide] | – |
| 22.4 | c1ccc(Nc2ncnc3ccc(-c4ccccc4)cc23)cc1 [Compound 132, N,6-diphenylquinazolin-4-amine] | – |
| 24 | COc1cc(-c2ccc3ncc(C#N)c(Nc4cccc5[nH]ncc45)c3c2)ccc1O [Compound 135, 4-(1H-indazol-4-ylamino)-6-(4-hydroxy-3-methoxyphenyl)quinoline-3-carbonitrile] | – |
| 25.8 | COc1cc(-c2ccc3ncnc(Nc4cc(NS(C)(=O)=O)ccc4Cl)c3c2)ccc1O [Compound 139, N-(4-chloro-3-(6-(4-hydroxy-3-methoxyphenyl)quinazolin-4-ylamino)phenyl)methanesulfonamide] | – |
| 24.3 | COc1cc(-c2ccc3ncnc(Nc4ccc(Cl)c(NS(C)(=O)=O)c4)c3c2)ccc1O [Compound 140, N-(2-chloro-5-(6-(4-hydroxy-3-methoxyphenyl)quinazolin-4-ylamino)phenyl)methanesulfonamide] | – |
| 4.6 | COc1cc(-c2ccc3nccc(Nc4ccc(Cl)c(NS(C)(=O)=O)c4)c3c2)ccc1O [Compound 141, N-(2-chloro-5-(6-(4-hydroxy-3-methoxyphenyl)quinolin-4-ylamino)phenyl)methanesulfonamide] | – |
| 23.3 | Fc1ccc(Nc2ncnc3ccc(-c4ccc5[nH]ncc5c4)cc23)cc1Cl [Compound 142, N-(3-chloro-4-fluorophenyl)-6-(1H-indazol-5-yl)quinazolin-4-amine] | – |
| 7.5 | COc1cc(-c2ccc3nccc(Nc4ccc(F)c(NS(C)(=O)=O)c4)c3c2)ccc1O [Compound 145, N-(2-fluoro-5-(6-(4-hydroxy-3-methoxyphenyl)quinolin-4-ylamino)phenyl)methanesulfonamide] | – |
| 37.2 | COc1cc(-c2ccc3ncnc(Nc4cc(NS(C)(=O)=O)c(F)cc4F)c3c2)ccc1O [Compound 150, N-(2,4-difluoro-5-(6-(4-hydroxy-3-methoxyphenyl)quinazolin-4-ylamino)phenyl)methanesulfonamide] | – |
| -5.4 | C#Cc1cccc(Nc2ncnc3ccc(-c4ccc(OC)cc4)cc23)c1 [Compound 151, N-(3-ethynylphenyl)-6-(4-methoxyphenyl)quinazolin-4-amine] | – |
| 8.2 | COc1cc(-c2ccc3ncnc(Nc4c(C)ccc5[nH]ncc45)c3c2)ccc1O [Compound 155, 2-methoxy-4-(4-(5-methyl-1H-indazol-4-ylamino)quinazolin-6-yl)phenol] | – |
